Source: PMC11280390, “Synthesis of Nitrostyrylthiazolidine-2,4-dione Derivatives Displaying Antileishmanial Potential” (Pharmaceuticals, 2024)
Read-outs that look alike come from different tables or passages of the source.

Experiments:
[1] = In vitro cytotoxicity on the human monocyte THP-1 cell line (MTT, 72 h); format: cell-based; settings: human; THP-1, 72 h, MTT
Experimental: The undifferentiated THP1 human monocyte cells (acute monocytic leukemia cell line purchased from ATCC, ref TIB-202) were routinely grown in RPMI 1640 medium (Life Technologies, Saint-Aubin, France) supplemented with 10% FCS (Life Technologies, Saint-Aubin, France), 100 U/mL penicillin, 100 µg/mL streptomycin and 2 mM L-glutamine at 37 °C, 5% CO2. The culture was maintained between 3.10^5 and 8.10^5 cells/mL. […] Wells were washed with RPMI and 100 µL of fresh complete medium was added. […] Then, 100 µL of MTT solution (0.5 mg/mL in medium) was added to each well. Cells were incubated for 2 h at 37 °C. […] Plates were shaken vigorously (700 rpm) for 10 min. […] (Palo Alto, CA, USA).

[2] = tested on: Leishmania infantum promastigotes; assay: In vitro antileishmanial activity on L. infantum promastigotes (MTT, 72 h); format: cell-based; settings: Leishmania infantum, read-out: Anti-L. infantum Promastigote Activity EC50
Experimental: Luciferase-expressing Leishmania infantum was kindly provided by Professor Thierry Lang of the Institut Pasteur. L. infantum promastigotes were routinely grown at 27 °C in Schneider’s Drosophila Medium (Dominique […] SAS, Bernolsheim, France) supplemented with 10% fetal calf serum, 2% human urine, sodium pyruvate 0.04 mM, hemin 0.1 µg/mL, HEPES 5 mM, streptomycin 100 µg/mL, penicillin 100 U/mL, L-glutamine 2 mM (culture medium). The in vitro evaluation of the antileishmanial activity of the tested compound on L. infantum promastigotes forms was assessed according to the Mosmann protocol with slight modifications. […] Appropriate controls treated with DMSO, Miltefosine, Amphotericin B and Fexinidazole sulfone (reference drugs purchased from Sigma-Aldrich, Saint-Louis, MO, USA) were added to each set of experiments. The plates were incubated at 27 °C for 72 h, Then, each plate-well was microscope-analyzed to detect any precipitate formation. Afterward, 20 µL of MTT (3-(4,5-dimethylthiazol-2-yl)-2,5-diphenyltetrazolium bromide) (Sigma-Aldrich, Saint-Louis, MI, USA) solution (5 mg/mL in PBS) were added to each well and incubated at 27 °C for 4 h. The reaction was then stopped by the addition of 100 µL of 10% sodium dodecyl sulfate—50% isopropanol. Plates were shaken vigorously at 400 rpm for 10 min. […] EC50 values represent the mean value calculated from at least three separate experiments.

[3] = In vitro cytotoxicity on the human hepatic HepG2 cell line (MTT, 72 h); settings: human
Experimental: (§1) HepG2 cell line (hepatocarcinoma cell line purchased from ATCC, ref HB-8065) was maintained at 37 °C, 5% CO2 with 90% humidity in MEM supplemented with 10% fetal bovine serum, 1% L-glutamine (200 mM) and penicillin (100 U/mL)/streptomycin ([…]) (complete MEM medium). The tested molecules’ cytotoxicity was assessed according to the method of Mosmann with slight modifications. Briefly, 5 × 10^3 cells in 100 μL of complete medium were inoculated into each well of 96-well plates and incubated at 37 °C in a humidified 5% CO2. After 24 h incubation, 100 μL of medium with various product concentrations dissolved in DMSO (final concentration less than 0.5% v/v) were added and the plates were incubated for 72 h at 37 °C. Triplicate assays were performed for each sample. Each plate well was then microscope-examined to detect possible precipitate formation before the medium was aspirated from the wells. Then, 100 μL of MTT (3-(4,5-dimethyl-2-thiazolyl)-2,5-diphenyl-2H-tetrazolium bromide) solution (0.5 mg/mL in medium without FCS) were then added to each well. Cells were incubated for 2 h at 37 °C, following which the MTT solution was removed and DMSO (100 μL) was added to dissolve the resulting blue formazan crystals. Plates were shaken vigorously (700 rpm) for 10 min. The absorbance was measured at 570 nm with 630 nm as reference wavelength using a TECAN Infinite F-200 spectrophotometer (Tecan Trading AG, Männedorf, Switzerland). DMSO was used as blank and doxorubicin (purchased from Sigma Aldrich, Saint Louis, MI, USA) as positive control. Cell viability was calculated as a percentage of control (cells incubated without compound). […] CC50 values represent the mean value calculated from three separate experiments.

HepG2 cell line = assay: as above; settings: for Selectivity INDEX (SI = CC50/EC50): HepG2 CC50 / L. infantum promastigote EC50
Experimental: as §1

[4] = tested on: L. donovani promastigotes overexpressing NTR2; assay: microbe, parasite or virus in culture; format: cell-based; settings: Leishmania donovani, read-out: EC50 Values, NTR2 OE
Experimental: (§2) EC50 values were determined as previously described. Nifurtimox was used as a positive control for activation via NTR1 [38] while delamanid was used as a positive control for activation via NTR2 [39].

[5] = tested on: L. donovani promastigotes overexpressing NTR1; assay: microbe, parasite or virus in culture; format: cell-based; settings: Leishmania donovani, read-out: EC50 Values, NTR1 OE
Experimental: as §2

[6] = tested on: wild-type L. donovani (LdBOB) promastigotes; assay: Antileishmanial activity against wild-type L. donovani promastigotes; format: cell-based; settings: Leishmania donovani, read-out: EC50 Values, WT
Experimental: as §2

[7] = HepG2 cells (hepatocarcinoma cell line, ATCC HB-8065), HepG2 Cytotoxicity CC50, HepG2, 72 h, MTT

Compound	EC50 ([2]; L. infantum promastigotes, MTT) [µM]	CC50 at 72 h [3, 7] [µM]	Selectivity INDEX (SI = CC50/EC50) (HepG2 cell line)	melting point [°C]	other results
C[C@@H]1[C@H](O)[C@@H](C)/C=C/C=C/C=C/C=C/C=C/C=C/C=C/[C@H](O[C@@H]2O[C@H](C)[C@@H](O)[C@H](N)[C@@H]2O)C[C@@H]2O[C@](O)(C[C@@H](O)C[C@@H](O)[C@H](O)CC[C@@H](O)C[C@@H](O)CC(=O)O[C@H]1C)C[C@H](O)[C@H]2C(=O)O [Amphotericin B, reference compound]	0.06 ± 0.02				CC50 at 72 h [1]: 17.6 ± 3 µM
N#CCN1C(=O)S/C(=C\c2ccc([N+](=O)[O-])cc2)C1=O [Compound 14d, (Z)-2-(5-(4-Nitrobenzylidene)thiazolidine-2,4-dion-3-yl)acetonitrile]	24.8 ± 6.09	109 ± 11	4.4	193 to 195	
NC(=O)CN1C(=O)S/C(=C\c2cccc([N+](=O)[O-])c2)C1=O [Compound 15c, (Z)-2-(5-(3-Nitrobenzylidene)thiazolidine-2,4-dion-3-yl)acetamide]	13.3 ± 7.75	> 62.5	>4.7	256 to 258	
O=C(CN1C(=O)S/C(=C\c2ccccc2[N+](=O)[O-])C1=O)c1ccccc1 [Compound 16b, (Z)-5-(2-Nitrobenzylidene)-3-(2-oxo-2-phenylethyl)thiazolidine-2,4-dione]	5.57 ± 1.28	11 ± 2.28	2.0	156 to 158	
O=C(CN1C(=O)S/C(=C\c2cccc([N+](=O)[O-])c2)C1=O)c1ccccc1 [Compound 16c, (Z)-5-(3-Nitrobenzylidene)-3-(2-oxo-2-phenylethyl)thiazolidine-2,4-dione]	3.22 ± 0.94	> 12.5	>3.9	160 to 162	
O=C(CN1C(=O)S/C(=C\c2ccccc2[N+](=O)[O-])C1=O)Nc1ccccc1 [Compound 23b, (Z)-2-(5-(2-Nitrobenzylidene)thiazolidine-2,4-dion-3-yl)-N-phenylacetamide]	11.6 ± 3.43	22.3 ± 0.59	1.9	186 to 188	
Cc1ccc(NC(=O)CN2C(=O)S/C(=C\c3ccccc3[N+](=O)[O-])C2=O)cc1 [Compound 24b, (Z)-N-(4-Methylphenyl)-2-(5-(2-nitrobenzylidene)thiazolidine-2,4-dion-3-yl) acetamide]	24.8 ± 6.68	30.9 ± 3.97	1.2	181 to 183	
COc1ccc(NC(=O)CN2C(=O)S/C(=C\c3ccccc3[N+](=O)[O-])C2=O)cc1 [Compound 25b, (Z)-2-(5-(2-Nitrobenzylidene)thiazolidine-2,4-dion-3-yl)-N-(4-methoxyphenyl) acetamide]	22.3 ± 4.93	23.3 ± 2.93	1.1	204 to 205	
O=C(CN1C(=O)S/C(=C\c2ccccc2[N+](=O)[O-])C1=O)Nc1ccc([N+](=O)[O-])cc1 [Compound 26b, (Z)-2-(5-(2-Nitrobenzylidene)thiazolidine-2,4-dion-3-yl)-N-(4-nitroyphenyl) acetamide]			2.1	213 to 215	CC50 at 72 h [3]: 30.1 ± 3.94 µM; EC50 [2]: 14.6 ± 2.91 µM
O=C(CN1C(=O)S/C(=C\c2cccc([N+](=O)[O-])c2)C1=O)Nc1ccc([N+](=O)[O-])cc1 [Compound 26c, (Z)-2-(5-(3-Nitrobenzylidene)thiazolidine-2,4-dion-3-yl)-N-(4-nitroyphenyl) acetamide]			>3.5	264 to 266	CC50 at 72 h [3]: > 25 µM; EC50 [2]: 7.2 ± 1.48 µM
O=C(CN1C(=O)S/C(=C\c2ccc([N+](=O)[O-])cc2)C1=O)Nc1ccc([N+](=O)[O-])cc1 [Compound 26d, (Z)-2-(5-(4-Nitrobenzylidene)thiazolidine-2,4-dion-3-yl)-N-(4-nitroyphenyl) acetamide]			>1.8	284 to 285	CC50 at 72 h [3]: > 25 µM; EC50 [2]: 14.1 ± 2.8 µM
O=C(CN1C(=O)S/C(=C\c2ccccc2[N+](=O)[O-])C1=O)Nc1ccc(Cl)cc1 [Compound 27b, (Z)-N-(4-Chlorophenyl)-2-(5-(2-nitrobenzylidene)thiazolidine-2,4-dion-3-yl) acetamide]	16.3 ± 3.85	34.6 ± 3.03	2.1	188 to 190	
O=C(CN1C(=O)S/C(=C\c2ccc([N+](=O)[O-])cc2)C1=O)Nc1ccc(Cl)cc1 [Compound 27d, (Z)-N-(4-Chlorophenyl)-2-(5-(4-nitrobenzylidene)thiazolidine-2,4-dion-3-yl) acetamide]	17.3 ± 4.17	> 12.5	>0.7	252 to 254	
COc1cc(/C=C2\SC(=O)N(CC(=O)Nc3ccc(Cl)cc3)C2=O)cc(OC)c1OC [Compound 27e, (Z)-N-(4-Chlorophenyl)-2-(5-(3,4,5-trimethoxybenzylidene)thiazolidine-2,4-dion-3-yl)acetamide]	5 ± 1.98	19.4 ± 2.05	3.9	218 to 219	
O=C(CN1C(=O)S/C(=C\c2ccccc2[N+](=O)[O-])C1=O)Nc1ccccc1Cl [Compound 28b, (Z)-N-(2-Chlorophenyl)-2-(5-(2-nitrobenzylidene)thiazolidine-2,4-dion-3-yl) acetamide]	16.1 ± 4.32	23 ± 3.2	1.4	174 to 175	
C[C@]1(COc2ccc(N3CCC(Oc4ccc(OC(F)(F)F)cc4)CC3)cc2)Cn2cc([N+](=O)[O-])nc2O1 [Delamanid]					EC50 [4]: 0.0003 ± 1e-06 µM; EC50 [5]: 0.002 ± 0.0003 µM; EC50 [6]: 0.003 ± 0.0001 µM
COc1cccc2c1C(=O)c1c(O)c3c(c(O)c1C2=O)C[C@@](O)(C(=O)CO)C[C@@H]3O[C@H]1C[C@H](N)[C@H](O)[C@H](C)O1 [Doxorubicin, reference compound]					CC50 (HepG2 cell line; read-out: HepG2 Cytotoxicity CC50, HepG2, 72 h, MTT): 0.2 ± 0.02 µM; CC50 at 72 h [1]: 2.2 ± 0.1 µM
Cn1c([N+](=O)[O-])cnc1COc1ccc(S(C)(=O)=O)cc1 [Fexinidazole sulfone, reference compound]	3.1 ± 0.7	> 200	>64.5		CC50 at 72 h [1]: > 200 µM
CCCCCCCCCCCCCCCCOP(=O)([O-])OCC[N+](C)(C)C [Miltefosine, reference compound]	3.3 ± 0.8				CC50 at 72 h [1]: 30 ± 4 µM
CC1CS(=O)(=O)CCN1/N=C/c1ccc([N+](=O)[O-])o1 (stereo not drawn) [Nifurtimox]					EC50 [4]: 0.163 ± 0.011 µM; EC50 [5]: 0.144 ± 0.01 µM; EC50 [6]: 3.11 ± 0.223 µM
